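The compound was tested at five concentrations on cells cultured in 96-well plates, with a 48-hour exposure period. GI50 is the concentration that inhibits growth by half.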 Active and inactive are the calls of the source. No stated cut-off is given here; in the data, active = GI50 up to about 1.1 µM and inactive = higher. Where only a bound is given, the exact number is not on record here.

Experimental findings from ChEMBL document CHEMBL1201862, “PubChem BioAssay data set” (2004) are described below.

Holding throughout (test): NCI anticancer screen, dose series, 48 h
Assay [1] concerns EKVX.
Assay [2] concerns HCC 2998.
Assay [3] relates to HCT-116.
Assay [4] has as its system HCT-15.
The subject of assay [5] is IGROV-1.
Assay [6] has as its system K562.
The subject of assay [7] is MDA-MB-435.
For assay [8], the system named is MDA-N.
The test system of assay [9] is NCI-H23.
Assay [10] has as its system NCI-H460.
In assay [11] the test system is NCI-H522.
Assay [12] has as its system NCI/ADR-RES.
Assay [13] relates to PC-3.
In assay [14] the test system is SK-OV-3.
Assay [15] deals with SNB-75.
The test system of assay [16] is SR.
The subject of assay [17] is TK-10.
Assay [18] deals with U-251.
Assay [19] deals with UACC-257.
For assay [20], the system named is UO-31.

Consider `COC(=O)[C@]12CC[C@H]3CC[C@H]([C@H]31)[C@H](c1ccccc1)N2`, for which the GI50 was 16.8 µM (inactive) in [1]; 13.5 µM (inactive) in [2]; 15.6 µM (inactive) in assay [3]; 18.2 µM in [4]; 17 µM (inactive) in [5]; 14.2 µM (inactive) in [6]. In addition, the GI50 in assay [7] is 18.3 µM (inactive); in assay [8] it was 17.9 µM (inactive); in [9] it was 16.8 µM (inactive); in assay [10], 15.9 µM (inactive); in assay [11], 20.5 µM (inactive); in [12] it was 13.9 µM (inactive). Further, the GI50 in assay [13] was 16.3 µM (inactive); in [14], 25.4 µM (inactive); in [15] it was 26.9 µM (inactive); in [16], 12.1 µM (inactive); in [17] it was 17.2 µM (inactive); in [18], 17 µM (inactive). Also, the GI50 in assay [19] is 15.1 µM (inactive); in assay [20], 17.4 µM (inactive).
As to `C[C@@H](C[C@H]1OC(C)(C)O[C@@H]1C(C)(C)O)[C@H]1CC=C2[C@]3(C)[C@H](O)C[C@H]4C(C)(C)[C@H](O)CC[C@]4(C)[C@H]3CC[C@]21C`, the GI50 in [1] is 9.98 µM (inactive); in assay [2], 7.08 µM (inactive); in [3], 5.86 µM (inactive); in [4], 6.03 µM; in assay [5] it was 11.9 µM (inactive); in [6] it was 3.99 µM (inactive). Moreover, the GI50 was 8.28 µM (inactive) in assay [7]; 8.85 µM (inactive) in assay [8]; 9.86 µM (inactive) in assay [9]; 6.44 µM (inactive) in assay [10]; 8.24 µM (inactive) in assay [11]; 7.69 µM (inactive) in assay [12]. The GI50 in [13] was 5.05 µM (inactive); in [14], 12.5 µM (inactive); in assay [15] it was 9.79 µM (inactive); in assay [16] it was 4.76 µM (inactive); in [17], 11.7 µM (inactive); in assay [18] it was 6.84 µM (inactive). Also, the GI50 in [19] was 8.81 µM (inactive); in assay [20] it was 8.93 µM (inactive).
Regarding `C=C(C)C(=O)OC1C[C@H](COC(C)=O)C2CC=C(CO)C2C2OC(=O)C(=C)[C@H]12` (stereo not given in full), the GI50 in assay [1] was > 100 µM (inactive); in [2] it was 47.2 µM (inactive); in assay [3] it was 18.3 µM (inactive); in [4] it was 24.8 µM; in [5], > 100 µM (inactive); in [6] it was 14.9 µM (inactive). Besides, the GI50 in [7] is 35.3 µM (inactive); in assay [8], 34.5 µM (inactive); in assay [9], 42.8 µM (inactive); in assay [10], > 100 µM (inactive); in [11], 19.1 µM (inactive); in assay [12], 45.4 µM (inactive). The GI50 in [13] is > 100 µM (inactive); in assay [14] it was > 100 µM (inactive); in assay [15] it was 69.2 µM (inactive); in assay [16], 23.2 µM (inactive); in [17], 74.6 µM (inactive); in assay [18], > 100 µM (inactive). For the same compound, the GI50 is 38.8 µM (inactive) in assay [19] and 39.2 µM (inactive) in assay [20].
